Drawing on ChEMBL document CHEMBL4184115, “In vitro and in silico evaluations of diarylpentanoid series as α-glucosidase inhibitor” (Bioorg Med Chem Lett, 2018), this text covers inhibition and IC50 for 35 molecules.

Structures are written as SMILES.

For assay [1], the target named is T1, Alpha glucosidase (Homo sapiens, UniProt O43451+P10253+P14410+Q2M2H8). The assay can be described thus: Inhibition of alpha-glucosidase (unknown origin) at 50 uM using 4-Nitrophenyl-alpha-D-glucopyranoside as substrate incubated foe 5 mins followed by substrate addition measured after 15 mins relative to control. In kind it is protein assay.
Assay [2] concerns the target T1, Alpha glucosidase. The assay can be described thus: Inhibition of alpha-glucosidase (unknown origin) using 4-Nitrophenyl-alpha-D-glucopyranoside as substrate incubated foe 5 mins followed by substrate addition measured after 15 mins. Type of assay: protein assay.

One may read the inhibition as how much of the control response was suppressed. Read a low inhibition as little suppression. Turning to `O=C1/C(=C/c2ccccc2)CCC/C1=C\c1cccc(Br)c1`, in assay [1], the inhibition was 27.2%. Still for that read-out and setting: to `O=C1/C(=C/c2ccccc2)CCC/C1=C\c1ccc(F)cc1` belongs 34%. Molecule `COc1cc(/C=C2\CCC/C(=C\c3ccccc3)C2=O)cc(OC)c1OC` displayed an inhibition in assay [1] of 16.3%. The same measure, in the same setting: in the case of `COc1cccc(/C=C2\CCC/C(=C\c3ccccc3)C2=O)c1OC` it was 31.8%; in that of `O=C1/C(=C/c2ccccc2)CCC/C1=C\c1ccc(Cl)c(Cl)c1`, 48.4%. Same read-out and setting: in the case of `O=C1/C(=C/c2ccccc2)CCC/C1=C\c1ccc(Br)cc1` it was 29.1%. Usually IC50 stands for the midpoint of a concentration-inhibition curve. Turning to `O=C(/C=C(O)/C=C/c1ccc(O)c(O)c1)c1cc(Cl)ccc1O`, the inhibition in assay [1] stood at 85.6%. The IC50 in assay [2] stood at 15.1 µM. `O=C1/C(=C/c2ccccc2)CCC/C1=C\c1ccccc1Br` showed an inhibition in assay [1] of 46.8%. Regarding `O=C1/C(=C/c2ccccc2)CCC/C1=C\c1ccc(O)c(O)c1`, the inhibition in assay [1] was 90.7%. In addition, in assay [2], the IC50 is 20.3 µM. The matching figures for `O=C(/C=C(O)/C=C/c1ccc(O)c(O)c1)c1ccccc1O`: 93.6% and 14.3 µM. As to `O=C(/C=C(O)/C=C/c1cc(O)ccc1O)c1ccc(O)cc1O`, in assay [1], the inhibition came out at 86.6%. The molecule further registered an IC50 in assay [2] of 20 µM. Take `O=C(/C=C(O)/C=C/c1ccc(O)cc1)c1ccccc1O`: the inhibition in assay [1] was determined as 20.4%. As for `O=C1/C(=C/c2ccccc2)CCC/C1=C\c1cccc(O)c1`, the inhibition in assay [1] came to 65.1%. In assay [2], this molecule gave an IC50 of 28.4 µM. For the molecule `O=c1c(O)c(-c2ccc(O)c(O)c2)oc2cc(O)cc(O)c12` [QUERCETIN], in assay [1], the inhibition was 83.6%. Besides, in assay [2], the IC50 amounted to 7.8 µM. Regarding `O=C(/C=C(O)/C=C/c1ccco1)c1cc(O)ccc1O`, the inhibition in assay [1] was found to be 98.4%. This molecule also came in with an IC50 in assay [2] of 14.1 µM. Molecule `Cc1ccc(/C=C2\CCC/C(=C\c3ccccc3)C2=O)cc1` registered an inhibition in assay [1] of 34.1%. On the same count and under the same terms, to `COc1ccc(OC)c(/C=C2\CCC/C(=C\c3ccccc3)C2=O)c1` belongs 43.8%. As for `O=C(/C=C(O)/C=C/c1ccc(O)cc1O)c1ccccc1O`, the inhibition in assay [1] was determined as 61.2%. This molecule registered an IC50 in assay [2] of 40.7 µM. The matching figures for `O=C1/C(=C/c2ccccc2)CCC/C1=C\c1ccc(O)cc1`: 53% and 42.3 µM.

Take `O=C1/C(=C/c2ccccc2)CCC/C1=C\c1cccc(F)c1`: the inhibition in assay [1] was found to be 39.8%. The same measure, in the same setting: in the case of `O=C1/C(=C/c2ccccc2)CCC/C1=C\c1ccc(Cl)cc1` it was 27.6%; in that of `O=C1/C(=C/c2ccccc2)CCC/C1=C\c1cccc(Cl)c1Cl`, 44%. Molecule `O=C(/C=C(O)/C=C/c1cc(O)ccc1O)c1cc(O)ccc1O` came in with an inhibition in assay [1] of 96.9%. Moreover, in assay [2], the IC50 was determined as 19.6 µM.

On to `O=C(C1=C(O)/C(=C/c2cccc(O)c2)CCC1)c1ccccc1`, for which, in assay [1], the inhibition was 43.2%. On to `O=C1/C(=C/c2ccccc2)CCC/C1=C\c1ccccc1Cl`, for which, in assay [1], the inhibition amounted to 43%.

The molecule `COc1ccc(/C=C2\CCC/C(=C\c3ccccc3)C2=O)cc1` yielded an inhibition in assay [1] of 31.4%. In assay [1], `O=C1/C(=C/c2ccccc2)CCC/C1=C\c1ccccc1F` had an inhibition of 43%. In the case of `O=C1/C(=C/c2ccccc2)CCC/C1=C\c1ccc(F)c(F)c1`, the inhibition in assay [1] came to 37.8%. `O=C(/C=C(O)/C=C/c1cccc(O)c1)c1cc(Cl)ccc1O` yielded an inhibition in assay [1] of 62.4%. Moreover, in assay [2], the IC50 turned out to be 36.4 µM. In the same order, the values of `O=C(C1=C(O)/C(=C/c2ccc(O)c(O)c2)CCC1)c1ccccc1` are 55.9% and 41 µM.

In turn, `O=C(/C=C(O)/C=C/c1ccc(O)cc1)c1cc(Cl)ccc1O` came in with an inhibition in assay [1] of 45.3%. The same measure, in the same setting: to `Cc1cccc(/C=C2\CCC/C(=C\c3ccccc3)C2=O)c1` belongs 47.9%; to `O=C(/C=C(O)/C=C/c1cccc(O)c1)c1ccccc1O`, 40.4%; to `O=C(C1=C(O)/C(=C/c2ccc(O)cc2)CCC1)c1ccccc1`, 34.9%. Still for that read-out and setting: to `COc1ccc(/C=C2\CCC/C(=C\c3ccccc3)C2=O)c(OC)c1` belongs 41%.
